The subject of the data set is excised porcine nasal tissue. As to the kind of experiment: Ex vivo nasal mucosal absorption, static diffusion (Franz) cell. The conditions noted are these: diffusion measured after 7 hours, compared with the other formulations.

Procedure: A standard static diffusion (Franz) cell set up was employed to set up an ex vivo model for nasal mucosa absorption, using an excised porcine nasal tissue.
Diffusion through the tissue was measured after 7 hours and permeation is shown as mean (three repeats) cumulative transport (μg/cm^2; with SD) in FIGS. 8 and 9 for naloxone and nalmefene, respectively.

As for benzalkonium chloride, the “Apparent permeation coefficient (Papp) of nalmefene” value is given as “No corresponding absorption enhancement” and the “Apparent permeation coefficient (Papp) of naloxone” value is recorded as “No corresponding absorption enhancement”.
